According to patent US20260001889A1, “COMPOSITIONS USEFUL FOR MODULATING SPLICING” (Skyhawk Therapeutics, Inc., priority 2022, published 2026):

Key:
[1] = tested on: ATXN3 transcripts containing exon 4; assay: ATXN3 Quantitative Splicing Assay (qPCR, E4E5 primers/probe); type: cell-based; settings: Homo sapiens, SK-N-MC cells, compounds for 24 h
In short: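 Exon 4-containing ATXN3 transcripts are quantified by TaqMan qPCR (E4E5 primers/probe) on cell-lysate cDNA, with total ATXN3 from the E8E9 set. Source cells: human neuroblastoma SK-N-MC, exposed for 24 h to compound at 30 μM down to 0.6 nM.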

total ATXN3 protein = assay: ATXN3 Total Protein Assay (Mesoscale Discovery, SK-N-MC cells); type: cell-based, Human; settings: incubation for 48 hours, MSD assay
In short: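 Readout: MSD electrochemiluminescence immunoassay of lysates, calibrated with recombinant ATXN3 and using mouse/rabbit anti-ATXN3 antibody pair. Cells (SK-N-MC, human) were exposed for 48 h to compound doses between 30 μM and 0.6 nM.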

ATXN3-HiBiT protein = assay: ATXN3 Total Protein Assay (Kelly-ATXN3-HiBiT luminescence); type: cell-based; settings: Kelly-ATXN3-HiBiT cells, 48 h after addition of compound
In short: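 Endogenous ATXN3-HiBiT protein in knock-in Kelly neuroblastoma cells measured by lytic HiBiT luminescence 48 h post-compound (added 24 h after seeding 2000 cells/well). Values are fold changes relative to DMSO, with viability from a parallel CellTiter-Glo plate.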

SMILES	IC50 [1]	IC50 (total ATXN3 protein)	EC50 (ATXN3-HiBiT protein)
C[C@H](F)[C@H](N)Cc1oc2c(NCc3c(F)cccc3F)cc(Cl)nc2c1Br [Compound 153, 2-[(2R,3S)-2-amino-3-fluorobutyl]-3-bromo-5-chloro-7-{[(2,6-difluorophenyl)methyl]amino}-1-oxa-4-azaindene]	10000 to 40000 nM	5000 to 10000 nM	10000 to 40000 nM
CC#Cc1cc(NCc2cccs2)c2oc(C[C@H](C)N)c(Br)c2n1 [Compound 160, 2-[(S)-2-aminopropyl]-3-bromo-5-(1-propynyl)-7-thenylamino-1-oxa-4-azaindene]	501 to 5000 nM	101 to 500 nM	101 to 500 nM
C#Cc1cc(NCc2cccs2)c2oc(C[C@H](C)N)c(C#C)c2n1 [Compound 162, 2-[(S)-2-aminopropyl]-3,5-diethynyl-7-thenylamino-1-oxa-4-azaindene]	0.01 to 100 nM	0.01 to 100 nM	101 to 500 nM
C=Cc1cc(NCc2cccs2)c2oc(C[C@H](C)N)c(Br)c2n1 [Compound 164, 2-[(S)-2-aminopropyl]-3-bromo-7-thenylamino-5-vinyl-1-oxa-4-azaindene]	5000 to 10000 nM	5000 to 10000 nM	501 to 5000 nM
C[C@H](N)Cc1oc2c(NCc3cccs3)cc(C(=O)O)nc2c1Br [Compound 167, 2-[(2S)-2-aminopropyl]-3-bromo-7-[(thiophen-2-ylmethyl)amino]furo[3,2-b]pyridine-5-carboxylic acid]	10000 to 40000 nM	10000 to 40000 nM	10000 to 40000 nM
C#Cc1cc(NCc2cccs2)c2oc(C[C@@H](N)C3CC(F)(F)C3)c(C#C)c2n1 [Compound 178, 2-[(R)-2-amino-2-(3,3-difluorocyclobutyl)ethyl]-3,5-diethynyl-7-thenylamino-1-oxa-4-azaindene]	501 to 5000 nM	501 to 5000 nM	501 to 5000 nM
C#Cc1cc(NCc2cccs2)c2oc(C[C@@H](N)C3CC3)c(C#C)c2n1 [Compound 181, 2-[(R)-2-amino-2-cyclopropylethyl]-3,5-diethynyl-7-thenylamino-1-oxa-4-azaindene]	501 to 5000 nM	501 to 5000 nM	501 to 5000 nM
N[C@@H](CO)C(F)(F)c1oc2c(NCc3cccs3)cc(Cl)nc2c1Br [Compound 192, (S)-2-amino-3-(3-bromo-5-chloro-7-thenylamino-1-oxa-4-aza-2-indenyl)-3,3-difluoro-1-propanol]	101 to 500 nM	101 to 500 nM	101 to 500 nM
C=Cc1c(C[C@H](C)N)oc2c(NCc3cccs3)cc(Cl)nc12 [Compound 194, 2-[(S)-2-aminopropyl]-5-chloro-7-thenylamino-3-vinyl-1-oxa-4-azaindene]	501 to 5000 nM	501 to 5000 nM	101 to 500 nM
N[C@@H](CCOC(F)F)Cc1oc2c(NCc3nccs3)cc(Cl)nc2c1Br [Compound 216, 2-[(S)-2-amino-4-difluoromethoxybutyl]-3-bromo-5-chloro-7-{[(1,3-thiazol-2-yl)methyl]amino}-1-oxa-4-azaindene]	101 to 500 nM	101 to 500 nM	101 to 500 nM
[2H]C([2H])(Nc1cc(Cl)nc2c(Br)c(C[C@H](C)N)oc12)c1cccs1 [Compound 221, 2-[(S)-2-aminopropyl]-3-bromo-5-chloro-7-{[(2-thienyl)(^2H2)methyl]amino}-1-oxa-4-azaindene]	0.01 to 100 nM	0.01 to 100 nM	0.01 to 100 nM
[2H]C([2H])(Nc1cc(Cl)nc2c(Br)c(C[C@@H](N)CCOC(F)F)oc12)c1cccs1 [Compound 222, 2-[(S)-2-amino-4-difluoromethoxybutyl]-3-bromo-5-chloro-7-{[(2-thienyl)(^2H2)methyl]amino}-1-oxa-4-azaindene]	101 to 500 nM	0.01 to 100 nM	0.01 to 100 nM
C[C@H](N)Cc1oc2c(NCc3ccco3)cc(Cl)nc2c1C#N [Compound 238, 2-[(S)-2-aminopropyl]-5-chloro-7-(furfurylamino)-1-oxa-4-aza-3-indenecarbonitrile]	10000 to 40000 nM	10000 to 40000 nM	10000 to 40000 nM
C[C@H](N)C(F)(F)c1oc2c(NCc3ccco3)cc(Cl)nc2c1Cl [Compound 239, 2-[(S)-2-amino-1,1-difluoropropyl]-3,5-dichloro-7-(furfurylamino)-1-oxa-4-azaindene]	101 to 500 nM	101 to 500 nM	101 to 500 nM
N[C@H](Cc1oc2c(NCc3ccco3)cc(Cl)nc2c1Br)C(F)F [Compound 243, 2-[(R)-2-amino-3,3-difluoropropyl]-3-bromo-5-chloro-7-(furfurylamino)-1-oxa-4-azaindene]	501 to 5000 nM	101 to 500 nM	501 to 5000 nM

More lines, now with the values ahead:

IC50 [1]	IC50 (total ATXN3 protein)	EC50 (ATXN3-HiBiT protein)	SMILES
101 to 500 nM	101 to 500 nM	501 to 5000 nM	C[C@H](F)[C@H](N)Cc1oc2c(NCc3ccccc3F)cc(Cl)nc2c1Br [Compound 152, 2-[(2R,3S)-2-amino-3-fluorobutyl]-3-bromo-5-chloro-7-{[(o-fluorophenyl)methyl]amino}-1-oxa-4-azaindene]
0.01 to 100 nM	0.01 to 100 nM	0.01 to 100 nM	N[C@@H](CCOC(F)F)Cc1oc2c(NCc3cccs3)cc(Cl)nc2c1Br [Compound 154, (S)-2-(2-amino-4-(difluoromethoxy)butyl)-3-bromo-5-chloro-N-(thiophen-2-ylmethyl)furo[3,2-b]pyridin-7-amine]
0.01 to 100 nM	0.01 to 100 nM	0.01 to 100 nM	[2H]C([2H])([2H])OC[C@H](N)Cc1oc2c(NCc3cccs3)cc(Cl)nc2c1Br [Compound 157, 2-[(R)-2-amino-3-(2H3)methoxypropyl]-3-bromo-5-chloro-7-thenylamino-1-oxa-4-azaindene]
501 to 5000 nM	101 to 500 nM	101 to 500 nM	CC[C@H](N)Cc1oc2c(NCc3cccs3)cc(Cl)nc2c1Br [Compound 169, 2-[(S)-2-aminobutyl]-3-bromo-5-chloro-7-thenylamino-1-oxa-4-azaindene]
101 to 500 nM	101 to 500 nM	101 to 500 nM	C#Cc1c(C[C@@H](N)C2CC2)oc2c(NCc3cccs3)cc(Cl)nc12 [Compound 180, 2-[(R)-2-amino-2-cyclopropylethyl]-5-chloro-3-ethynyl-7-thenylamino-1-oxa-4-azaindene]
101 to 500 nM	101 to 500 nM	0.01 to 100 nM	N[C@@H](COC(F)F)Cc1oc2c(NCc3cccs3)cc(Cl)nc2c1Cl [Compound 188, 2-[(R)-2-amino-3-difluoromethoxypropyl]-3,5-dichloro-7-thenylamino-1-oxa-4-azaindene]
101 to 500 nM	101 to 500 nM	101 to 500 nM	C[C@H](N)C(F)(F)c1oc2c(NCc3cccs3)cc(Cl)nc2c1Cl [Compound 189, 2-[(S)-2-amino-1,1-difluoropropyl]-3,5-dichloro-7-thenylamino-1-oxa-4-azaindene]
501 to 5000 nM	501 to 5000 nM	501 to 5000 nM	N[C@@H](CO)C(F)(F)c1oc2c(NCc3cccs3)cc(Cl)nc2c1Cl [Compound 190, (S)-2-amino-3-(3,5-dichloro-7-thenylamino-1-oxa-4-aza-2-indenyl)-3,3-difluoro-1-propanol]
501 to 5000 nM	501 to 5000 nM	501 to 5000 nM	COC[C@H](N)C(F)(F)c1oc2c(NCc3cccs3)cc(Cl)nc2c1Br [Compound 193, 2-[(S)-2-amino-1,1-difluoro-3-methoxypropyl]-3-bromo-5-chloro-7-thenylamino-1-oxa-4-azaindene]
0.01 to 100 nM	0.01 to 100 nM	0.01 to 100 nM	C#Cc1c(C[C@@H](N)COC(F)F)oc2c(NCc3cccs3)cc(Cl)nc12 [Compound 196, 2-[(R)-2-amino-3-difluoromethoxypropyl]-5-chloro-3-ethynyl-7-thenylamino-1-oxa-4-azaindene]
501 to 5000 nM	501 to 5000 nM	501 to 5000 nM	C[C@H](O)Cc1oc2c(NCc3cccs3)cc(Cl)nc2c1Br [Compound 213, (S)-1-(3-bromo-5-chloro-7-thenylamino-1-oxa-4-aza-2-indenyl)-2-propanol]
501 to 5000 nM	501 to 5000 nM	501 to 5000 nM	CC(C)(N)Cc1oc2c(NCc3cccs3)cc(Cl)nc2c1Br [Compound 226, 2-(2-amino-2-methylpropyl)-3-bromo-5-chloro-7-thenylamino-1-oxa-4-azaindene]
501 to 5000 nM	501 to 5000 nM	501 to 5000 nM	NC1(Cc2oc3c(NCc4cccs4)cc(Cl)nc3c2Br)CC1 [Compound 227, 2-[(1-aminocyclopropyl)methyl]-3-bromo-5-chloro-N-(thiophen-2-ylmethyl)furo[3,2-b]pyridin-7-amine]
10000 to 40000 nM	5000 to 10000 nM	10000 to 40000 nM	C[C@H](F)[C@H](N)Cc1oc2c(NCc3cccs3)cc(Cl)nc2c1C#N [Compound 237, 2-[(2R,3S)-2-amino-3-fluorobutyl]-5-chloro-7-[(thiophen-2-ylmethyl)amino]furo[3,2-b]pyridine-3-carbonitrile]
501 to 5000 nM	501 to 5000 nM	501 to 5000 nM	C[C@H](F)[C@H](N)Cc1oc2c(NCc3cccs3)cc(Cl)nc2c1C1CC1 [Compound 240, 2-[(2R,3S)-2-amino-3-fluorobutyl]-5-chloro-3-cyclopropyl-7-thenylamino-1-oxa-4-azaindene]
101 to 500 nM	101 to 500 nM	101 to 500 nM	N[C@H](Cc1oc2c(NCc3cccs3)cc(Cl)nc2c1Br)C(F)F [Compound 242, 2-[(R)-2-amino-3,3-difluoropropyl]-3-bromo-5-chloro-7-thenylamino-1-oxa-4-azaindene]
